Experimental data taken from ChEMBL document CHEMBL1123728, “Rational design of 4-[(methylsulfonyl)amino]benzamides as class III antiarrhythmic agents” (J Med Chem, 1987).
Active and inactive are the calls of the source.

Tests used:
[1] = species: Canis familiaris; test: Concentration required for 20% increase in the functional refractory period of canine ventricular muscle (extracellular electrophysiology) in vitro was reported. Range is between 0.8-11; set-up: species or system Canis lupus familiaris
[2] = species: Canis familiaris; test: Concentration required for 20% increase in action potential duration of canine Purkinje fiber (intracellular electrophysiology) in vitro measured at 95% repolarization was reported. Range is between 0.08-5; assay type: functional, Canis lupus familiaris
[3] = species: Canis familiaris; test: Concentration required for 20% increase in the functional refractory period of canine ventricular muscle (extracellular electrophysiology) in vitro was reported. Range is between 9-4000; set-up: species or system Canis lupus familiaris
[4] = test system: Canis familiaris; test: Efficacy in blocking sustained ventricular tachycardia (rate>250 bpm) elicited by programmed electrical stimulation in conscious dogs after iv administration of dose 3 mg/kg; no. of successful exp / total no. of exp = 4/4; assay type: functional, Canis lupus familiaris, Cardiac ventricle
[5] = species: Canis familiaris; test: Concentration required for 20% increase in action potential duration of canine Purkinje fiber (intracellular electrophysiology) in vitro measured at 95% repolarization was reported. Range is between 9-63; assay type: functional, Canis lupus familiaris
[6] = test system: Canis familiaris; test: Efficacy in blocking sustained ventricular tachycardia (rate>250 bpm) elicited by programmed electrical stimulation in anesthetized dogs after iv administration of dose 1 mg/kg; no. of successful exp / total no. of exp = 2/7; assay type: functional, Canis lupus familiaris, Cardiac ventricle
[7] = species: Canis familiaris; test: Concentration required for 20% increase in action potential duration of canine Purkinje fiber (intracellular electrophysiology) in vitro measured at 95% repolarization was reported. Range is between 0.03-2; assay type: functional, Canis lupus familiaris
[8] = test system: Canis familiaris; test: Efficacy in blocking sustained ventricular tachycardia (rate>250 bpm) elicited by programmed electrical stimulation in anesthetized dogs after iv administration of dose 0.3 mg/kg; no. of successful exp / total no. of exp = 7/10; assay type: functional, Canis lupus familiaris, Cardiac ventricle
[9] = test system: Canis familiaris; test: Efficacy in blocking sustained ventricular tachycardia (rate>250 bpm) elicited by programmed electrical stimulation in conscious dogs after iv administration of dose 1 mg/kg; no. of successful exp / total no. of exp = 5/6; assay type: functional, Canis lupus familiaris, Cardiac ventricle
[10] = species: Canis familiaris; test: Concentration required for 20% increase in the functional refractory period of canine ventricular muscle (extracellular electrophysiology) in vitro was reported;NR=at 10 uM the FRP was increased 13%; settings: Canis lupus familiaris
[11] = species: Canis familiaris; test: Decrease in Vmax in isolated canine Purkinje fibers at 10 uM; assay type: functional, Canis lupus familiaris, Purkinje fiber
[12] = species: Canis familiaris; test: Concentration required for 20% increase in action potential duration of canine Purkinje fiber (intracellular electrophysiology) in vitro measured at 95% repolarization was reported;NR means not reached; assay type: functional; settings: Canis lupus familiaris
[13] = species: Canis familiaris; test: Concentration required for 20% increase in the functional refractory period of canine ventricular muscle (extracellular electrophysiology) in vitro was reported;NR means not reached; settings: Canis lupus familiaris
[14] = species: Canis familiaris; test: Concentration required for 20% increase in action potential duration of canine Purkinje fiber (intracellular electrophysiology) in vitro measured at 95% repolarization was reported. Range is between 0.01-0.03; assay type: functional, Canis lupus familiaris
[15] = species: Canis familiaris; test: Concentration required for 20% increase in the functional refractory period of canine ventricular muscle (extracellular electrophysiology) in vitro was reported. Range is between 0.05-3.7; set-up: species or system Canis lupus familiaris
[16] = species: Canis familiaris; test: Concentration required for 20% increase in the functional refractory period of canine ventricular muscle (extracellular electrophysiology) in vitro was reported. Range is between 5.6-800; set-up: species or system Canis lupus familiaris
[17] = species: Canis familiaris; test: Concentration required for 20% increase in action potential duration of canine Purkinje fiber (intracellular electrophysiology) in vitro measured at 95% repolarization was reported. NR means 10% increase in APD95 (C10APD95) was observed at 30 um(22; assay type: functional; settings: Canis lupus familiaris
[18] = test system: Canis familiaris; test: Efficacy in blocking sustained ventricular tachycardia (rate>250 bpm) elicited by programmed electrical stimulation in anesthetized dogs after iv administration of dose 9 mg/kg; no. of successful exp / total no. of exp = 4/4; assay type: functional, Canis lupus familiaris, Cardiac ventricle
[19] = test system: Canis familiaris; test: Efficacy in blocking sustained ventricular tachycardia (rate>250 bpm) elicited by programmed electrical stimulation in anesthetized dogs after iv administration of dose 1.4 mg/kg; no. of successful exp / total no. of exp = 3/5; assay type: functional, Canis lupus familiaris, Cardiac ventricle
[20] = species: Canis familiaris; test: Concentration required for 20% increase in the functional refractory period of canine ventricular muscle (extracellular electrophysiology) in vitro was reported. Range is between 1.6-25; set-up: species or system Canis lupus familiaris
[21] = species: Canis familiaris; test: Concentration required for 20% increase in action potential duration of canine Purkinje fiber (intracellular electrophysiology) in vitro measured at 95% repolarization was reported. Range is between 1.0-34; assay type: functional, Canis lupus familiaris
[22] = species: Canis familiaris; test: Concentration required for 20% increase in the functional refractory period of canine ventricular muscle (extracellular electrophysiology) in vitro was reported; NR means not reached; settings: Canis lupus familiaris
[23] = species: Canis familiaris; test: Concentration required for 20% increase in the functional refractory period of canine ventricular muscle (extracellular electrophysiology) in vitro was reported; set-up: species or system Canis lupus familiaris
[24] = test system: Canis familiaris; test: Efficacy in blocking sustained ventricular tachycardia (rate>250 bpm) elicited by programmed electrical stimulation in conscious dogs after iv administration of dose 0.5 mg/kg; no. of successful exp / total no. of exp = 4/4; assay type: functional, Canis lupus familiaris, Cardiac ventricle
[25] = species: Canis familiaris; test: Concentration required for 20% increase in the functional refractory period of canine ventricular muscle (extracellular electrophysiology) in vitro was reported. Range is between 1.2-150; set-up: species or system Canis lupus familiaris
[26] = test system: Canis familiaris; test: Efficacy in blocking sustained ventricular tachycardia (rate>250 bpm) elicited by programmed electrical stimulation in conscious dogs after iv administration of 0.8 mg/kg; no. of successful exp / total no. of exp = 5/5; assay type: functional, Canis lupus familiaris, Cardiac ventricle
[27] = test system: Canis familiaris; test: Efficacy in blocking sustained ventricular tachycardia (rate>250 bpm) elicited by programmed electrical stimulation in anesthetized dogs after iv administration of dose 1.0 mg/kg; no. of successful exp / total no. of exp = 3/4; assay type: functional, Canis lupus familiaris, Cardiac ventricle
[28] = test system: Canis familiaris; test: Efficacy in blocking sustained ventricular tachycardia (rate>250 bpm) elicited by programmed electrical stimulation in anesthetized dogs after iv administration of 0.5 mg/kg; no. of successful exp / total no. of exp = 4/4; assay type: functional, Canis lupus familiaris, Cardiac ventricle
[29] = species: Canis familiaris; test: Concentration required for 20% increase in action potential duration of canine Purkinje fiber (intracellular electrophysiology) in vitro measured at 95% repolarization was reported. Range is between 1.8-2.0; assay type: functional, Canis lupus familiaris
[30] = species: Canis familiaris; test: Concentration required for 20% increase in action potential duration of canine Purkinje fiber (intracellular electrophysiology) in vitro measured at 95% repolarization was reported. Range is between 0.2-0.5; assay type: functional, Canis lupus familiaris
[31] = species: Canis familiaris; test: Concentration required for 20% increase in action potential duration of canine Purkinje fiber (intracellular electrophysiology) in vitro measured at 95% repolarization was reported. Range is between 0.2-5; assay type: functional, Canis lupus familiaris
[32] = test system: Canis familiaris; test: Efficacy in blocking sustained ventricular tachycardia (rate>250 bpm) elicited by programmed electrical stimulation in anesthetized dogs after iv administration of dose 0.8 mg/kg; no. of successful exp / total no. of exp = 5/9; assay type: functional, Canis lupus familiaris, Cardiac ventricle
[33] = species: Canis familiaris; test: Concentration required for 20% increase in the functional refractory period of canine ventricular muscle (extracellular electrophysiology) in vitro was reported, range is 0.3-1.1; set-up: species or system Canis lupus familiaris
[34] = species: Canis familiaris; test: Concentration required for 20% increase in action potential duration of canine Purkinje fiber (intracellular electrophysiology) in vitro measured at 95% repolarization was reported; NR means not reached; assay type: functional; settings: Canis lupus familiaris
[35] = pKa1 was determined; assay type: physicochemical; settings: read-out: pKa1
[36] = test system: Mus musculus; test: Acute toxicity after intraperitoneal administration in mouse was determined; range 250-300 mg/kg; assay type: functional; settings: ip
[37] = Bioavailability after peroral administration (3 mg/kg) in dog was determined; Range 41-98%; assay type: ADME, organism-based, Canis lupus familiaris; settings: in vivo, po, read-out: Bioavailabiility
[38] = species: Canis familiaris; test: Concentration required for 20% increase in action potential duration of canine Purkinje fiber (intracellular electrophysiology) in vitro measured at 95% repolarization was reported. RAnge is between 2.0-11.4; assay type: functional, Canis lupus familiaris
[39] = test system: Canis familiaris; test: Efficacy in blocking sustained ventricular tachycardia (rate>250 bpm) elicited by programmed electrical stimulation in 4 anesthetized dogs after iv administration of dose 1 mg/kg; no. of successful exp / total no. of exp = 4/4; assay type: functional, Canis lupus familiaris, Cardiac ventricle
[40] = test system: Canis familiaris; test: Efficacy in blocking sustained ventricular tachycardia (rate>250 bpm) elicited by programmed electrical stimulation in conscious dogs. Administered orally at a dose of 2.5 mg/kg after iv administration; no. of successful exp / total no. of exp = 5 /6; assay type: functional, Canis lupus familiaris, Cardiac ventricle; settings: route oral
[41] = Half life period was determined; settings: dog
[42] = species: Canis familiaris; test: Concentration required for 20% increase in the functional refractory period of canine ventricular muscle (extracellular electrophysiology) in vitro was reported. Range is between 9-35; set-up: species or system Canis lupus familiaris
[43] = pKa2 was determined; assay type: physicochemical; settings: read-out: pKa2

## CCCCCCCNCCNC(=O)c1ccc(NS(C)(=O)=O)cc1.Cl
[1]
  C20 FRP: 4 µM
[2]
  C20 APD95: 0.2 µM

## CC(C)NCC(O)c1ccc(NS(C)(=O)=O)cc1 (racemic) [SOTALOL]
[3]
  C20 FRP: 52 µM
[4]
  Efficacy: 4
[5]
  C20 APD95: 22 µM
[6]
  Efficacy: 2

## CCCCCCC[N+](CC)(CC)CCCCc1ccc(Cl)cc1 [CLOFILIUM]
[7]
  C20 APD95: 0.2 µM
[8]
  Efficacy: 7
[9]
  Efficacy: 5
[10]
  C20 FRP: Partially active
[11]
  delta Vmax: -18%

## CCNCCNC(=O)c1ccc(NS(C)(=O)=O)cc1
[12]
  C20 APD95: Not reached
[13]
  C20 FRP: Not reached

## CCCCCCCN(CC)CCNC(=O)c1ccc(NS(C)(=O)=O)cc1
[14]
  C20 APD95: 0.02 µM
[15]
  C20 FRP: 0.5 µM

## CCN(CC)CCNC(=O)c1ccc(NC(C)=O)cc1 [ACECAINIDE]
[16]
  C20 FRP: 60 µM
[17]
  C20 APD95: Partially active
[18]
  Efficacy: 4

## CCN(CC)CCCNC(=O)c1ccc(NS(C)(=O)=O)cc1
[19]
  Efficacy: 3
[20]
  C20 FRP: 4 µM
[21]
  C20 APD95: 2 µM

## CCN(CC)CCNC(=O)c1ccc(N(C)S(C)(=O)=O)cc1
[12]
  C20 APD95: Not reached
[22]
  C20 FRP: Not reached

## CCN(CC)C1CCC(NC(=O)c2ccc(NS(C)(=O)=O)cc2)CC1.Cl (configuration not stated)
[23]
  C20 FRP: 40 µM
[24]
  Efficacy: 4
[25]
  C20 FRP: 3 µM
[26]
  Efficacy: 5
[27]
  Efficacy: 3
[28]
  Efficacy: 4
[29]
  C20 APD95: 1.9 µM
[30]
  C20 APD95: 0.4 µM

## C=CCN(CCN(CC)CC)C(=O)c1ccc(NS(C)(=O)=O)cc1
[31]
  C20 APD95: 0.5 µM
[32]
  Efficacy: 5
[33]
  C20 FRP: 0.5 µM

## CCN(CC)CCNC(=O)c1ccc(NS(=O)(=O)C(F)(F)F)cc1
[12]
  C20 APD95: Not reached
[13]
  C20 FRP: Not reached

## CCN(CC)CCNC(=O)c1ccc(NS(=O)(=O)CC)cc1
[34]
  C20 APD95: Not reached
[22]
  C20 FRP: Not reached

## CCN(CC)CCNC(=O)c1ccc(NS(C)(=O)=O)cc1.Cl [SEMATILIDE HYDROCHLORIDE]
[35]
  pKa: 7.6
[36]
  LD50: 250 mg/kg
[37]
  bioavailability: 41%
[38]
  C20 APD95: 3.5 µM
[39]
  Efficacy: 4
[40]
  Efficacy: 5
[41]
  half-life: 2.7 h
[42]
  C20 FRP: 17 µM
[43]
  pKa: 9.51
